Data taken from PubChem BioAssay AID1845197 (Molecular Pharmacology Branch, DTP, NCI, 2023).
“And” between values parts separate entries of the source, which are not always exact repeats. Equal entries are not always repeated.

System: 349418-098-R tumor spheroid viability
Experiment: Anticancer human tumor 349418-098-R patient-derived lung adenocarcinoma cell line growth inhibition
Conditions: spheroids with HUVEC and MSC; for viability, T/C: stronger effect = lower value
Text: Multicellular complex tumor spheroid response to DNA repair inhibitors in combination with DNA-damaging drugs
This study explores the anticancer activities of DNA-damaging drugs and inhibitors of DNA damage repair, both as single agents and in combinations. Complex tumor spheroids comprised of malignant cells, endothelial cells and mesenchymal stem cells served as an in vitro model for human solid tumors. This model system incorporates physiologically relevant features and patient-derived or established malignant cell lines with clinically relevant genetic alterations from many tumor types. Twenty-six patient-derived or established malignant cell lines were evaluated representing sarcoma, melanoma, small cell lung cancer (SCLC), non-small cell lung cancer (NSCLC), as well as bladder, ovarian and pancreatic cancers. The concentration ranges selected for each drug and investigational agent were based upon clinically achievable concentrations if the clinical Cmax of the agent was known.
Compounds. The drugs and compounds olaparib (NSC753686), talazoparib (NSC767125), berzosertib (NSC777718), elimusertib (NSC800525), nedisertib (NSC802822), VX-984 (NSC792969), AZD-1390 (NSC803789), temozolomide (NSC362856), topotecan (NSC609699), trabectedin (NSC813783), staurosporine (NSC755774), and gemcitabine (NSC613327) were obtained from the National Cancer Institute (NCI) Developmental Therapeutics Program Chemical Repository. The FDA-approved anticancer drug set is available from the Developmental Therapeutics Program at https://dtp.cancer.gov/organization/dscb/obtaining/available_plates.htm. […] The stock solutions were prepared in dimethyl sulfoxide (DMSO, Sigma-Aldrich, St. Louis, MO, cat. D2650) at 400-fold the tested concentration and stored at -70 degrees C. Prior to their use, the stock solutions were diluted in fresh medium and the final DMSO concentration in the assay was 0.25% (v/v). All drugs and investigational agents were tested over a range starting from a high concentration at or near the clinical Cmax and decreasing in half-log increments. If the clinical Cmax for an agent had not been determined, the highest concentration tested was 10 microM.
Cell Lines. The patient-derived cancer cell (PDC) lines: 156681-154-R-J1-PDC, 283228-195-R-J1-PDC, 287954-098-R-J1-PDC, 292921-168-R-J2-PDC, 349418-098-R-PDC, 425362-245-T-J1-PDC, 556581-035-R-J1-PDC, and BL0293-F563-PDC were received from the NCI Patient-Derived Models Repository (PDMR, https://pdmr.cancer.gov). The established cell lines HS-SY-2 (RRID:CVCL_8719), MPNST, and SYO-1 (RRID:CVCL_7146) were obtained from the Sloan Kettering Institute. The alveolar soft parts sarcoma cell line ASPS-1 (RRID:CVCL_S738) was established at the NCI and grown from internal seed stocks. The following established cell lines were purchased from the American Type Culture Collection (ATCC, Manassas, VA): G-401 (ATCC, cat. CRL-1441, RRID:CVCL_0270), SW982 (ATCC, cat. HTB-93, RRID:CVCL_1734), VA-ES-BJ (ATCC, cat. CRL-2138, RRID:CVCL_1785), NCI-H719 (ATCC, cat. CRL-5837, RRID:CVCL_1582), NCI-H196 (ATCC, cat. CRL-5823, RRID:CVCL_1509), NCI-H841 (ATCC, cat. CRL-5845, RRID:CVCL_1595), NCI-H1618 (ATCC, cat. CRL-5879, RRID:CVCL_1480), NCI-H1876 (ATCC, cat. CRL-5902, RRID:CVCL_1503), DMS 114 (ATCC, cat. CRL-2066; RRID:CVCL_1174), NCI-H211 (ATCC, cat. CRL-5824; RRID:CVCL_1529), and SW 1271 (ATCC, cat. CRL-2177, RRID:CVCL_1716). The small cell lung cancer cell line COR-L88 was purchased from Sigma-Aldrich (cat. 92031917-1VL, RRID:CVCL_1141). The non-small cell lung cancer cell lines NCI-H226 (RRID:CVCL_1544) and NCI-H322M (RRID:CVCL_1557) were established at the NCI and grown from internal seed stocks. Pooled donor human umbilical vein endothelial cells (HUVEC, Lonza, cat. CC-2519) and human mesenchymal stem cells (hMSC, Lonza, cat. PT-2501) were purchased from Lonza (Walkersville, MD).
Cell Culture. All cells were maintained in an incubator at 37 degrees C and 5% CO2 with 95% humidity. […]
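Further: spheroids exposed to compound for 7 days before measurement.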
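Wherever viability, T/C is given: percent of vehicle control viability with 100% = DMSO-treated spheroids.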

## Cc1cc(C)c(CNC(=O)c2cc(-c3ccc(CN4CCOCC4)cc3)cc3c2cnn3C2CCCC2)c(=O)[nH]1 + COc1cc2c(cc1O)CCNC21CSC2c3c(OC(C)=O)c(C)c4c(c3C(COC1=O)N1C(O)C3Cc5cc(C)c(OC)c(O)c5C(C21)N3C)OCO4
Curve of first compound, second compound 30 pM
  IC50: > 10 µM
Curve of first compound, second compound 94.9 pM
  IC50: > 10 µM
Curve of first compound, second compound 0.0003 µM
  IC50: > 10 µM
Curve of first compound, second compound 0.000949 µM
  IC50: < 0.0316 µM
Curve of first compound, second compound 0.003 µM
  IC50: < 0.0316 µM
Second compound 30 pM, first compound 0.0316 µM
  viability, T/C: 103%
Second compound 30 pM, first compound 0.1 µM
  viability, T/C: 97.3%
Second compound 30 pM, first compound 0.316 µM
  viability, T/C: 105%
Second compound 30 pM, first compound 1 µM
  viability, T/C: 119%
Second compound 30 pM, first compound 3.16 µM
  viability, T/C: 114%
Second compound 30 pM, first compound 10 µM
  viability, T/C: 104%
Second compound 94.9 pM, first compound 0.0316 µM
  viability, T/C: 104%
Second compound 94.9 pM, first compound 0.1 µM
  viability, T/C: 97.9%
Second compound 94.9 pM, first compound 0.316 µM
  viability, T/C: 102%
Second compound 94.9 pM, first compound 1 µM
  viability, T/C: 118%
Second compound 94.9 pM, first compound 3.16 µM
  viability, T/C: 115%
Second compound 94.9 pM, first compound 10 µM
  viability, T/C: 77.7%
Second compound 0.0003 µM, first compound 0.0316 µM
  viability, T/C: 98.4%
Second compound 0.0003 µM, first compound 0.1 µM
  viability, T/C: 90.4%
Second compound 0.0003 µM, first compound 0.316 µM
  viability, T/C: 98.1%
Second compound 0.0003 µM, first compound 1 µM
  viability, T/C: 100%
Second compound 0.0003 µM, first compound 3.16 µM
  viability, T/C: 98.6%
Second compound 0.0003 µM, first compound 10 µM
  viability, T/C: 72.6%
Second compound 0.000949 µM, first compound 0.0316 µM
  viability, T/C: 0.39%
Second compound 0.000949 µM, first compound 0.1 µM
  viability, T/C: 0.81%
Second compound 0.000949 µM, first compound 0.316 µM
  viability, T/C: 0.5%
Second compound 0.000949 µM, first compound 1 µM
  viability, T/C: 0.48%
Second compound 0.000949 µM, first compound 3.16 µM
  viability, T/C: 0.45%
Second compound 0.000949 µM, first compound 10 µM
  viability, T/C: 0.53%
Second compound 0.003 µM, first compound 0.0316 µM
  viability, T/C: 1.51%
Second compound 0.003 µM, first compound 0.1 µM
  viability, T/C: 1.6%
Second compound 0.003 µM, first compound 0.316 µM
  viability, T/C: 1.61%
Second compound 0.003 µM, first compound 1 µM
  viability, T/C: 1.74%
Second compound 0.003 µM, first compound 3.16 µM
  viability, T/C: 2.05%
Second compound 0.003 µM, first compound 10 µM
  viability, T/C: 0.75%

## Cn1ncnc1[C@H]1c2n[nH]c(=O)c3cc(F)cc(c23)N[C@@H]1c1ccc(F)cc1
Compound 0.00949 µM
  viability, T/C: 98.5% and 97% and 84.1%
Compound 0.03 µM
  viability, T/C: 96.8% and 96.3% and 103%
Compound 0.0949 µM
  viability, T/C: 95.9% and 95.6% and 97.9%
Compound 0.3 µM
  viability, T/C: 92.7% and 92.3% and 93.1%
Compound 0.949 µM
  viability, T/C: 93.1% and 85% and 89.9%
Compound 3 µM
  viability, T/C: 9.44% and 11.2% and 10.9%
Curve of compound
  IC50: 1.72 µM and 1.64 µM and 1.7 µM

## Cc1cc(C)c(CNC(=O)c2cc(-c3ccc(CN4CCOCC4)cc3)cc3c2cnn3C2CCCC2)c(=O)[nH]1
Compound 0.0316 µM
  viability, T/C: 99.9% and 101% and 92.4%
Compound 0.1 µM
  viability, T/C: 118% and 95.5% and 100%
Compound 0.316 µM
  viability, T/C: 111% and 98.5% and 101%
Compound 1 µM
  viability, T/C: 109% and 97% and 96.8%
Compound 3.16 µM
  viability, T/C: 126% and 87.5% and 87.7%
Compound 10 µM
  viability, T/C: 75.6% and 33.3% and 40.8%
Curve of compound
  IC50: > 10 µM and 7.02 µM and 7.99 µM

## CC(C)n1c(=O)n(C)c2cnc3cc(F)c(-c4ccc(OCCCN5CCCCC5)nc4)cc3c21
Compound 0.0316 µM
  viability, T/C: 89% and 110% (2×)
Compound 0.1 µM
  viability, T/C: 97.8% and 97.9% and 106%
Compound 0.316 µM
  viability, T/C: 94.4% and 93.9% and 108%
Compound 1 µM
  viability, T/C: 105% and 97.3% and 108%
Compound 3.16 µM
  viability, T/C: 109% and 102% and 105%
Compound 10 µM
  viability, T/C: 56.8% and 48.3% and 85.3%
Curve of compound
  IC50: > 10 µM and 9.63 µM
